Reference: patent US20260069571A1, “DDR1 AND DDR2 INHIBITORS FOR THE TREATEMENT OF CANCER AND FIBROTIC DISEASES” (REDX PHARMA PLC, priority 2021, published 2026)

Assays:
Recombinant human DDR2 = Recombinant human DDR2 (Homo sapiens (Human), UniProt Q16832); assay: LanthaScreen Eu Kinase Binding Assay, DDR2; conditions: DDR2 1.75 nM (aa427-855, GST tag), Kinase Tracer 178 10 nM; for IC50: read-out: DDR2 pIC50 (converted)
Experimental: (§1) DDR1 and DDR2 Biochemical Assay Method
(§2) The capacity of compounds to bind to DDR1 and DDR2 was quantified using a LanthaScreen Eu Kinase Binding Assay. Recombinant human DDR1 (2.5 nM; aa440-876 containing a GST tag) and DDR2 (1.75 nM; aa427-855 containing a GST tag) were diluted in assay buffer (50 mM HEPES pH7.3, 10 mM MgCl2, 1 mM EGTA and 0.01% Tween) with various concentrations of compound in a 384-well plate and a volume of 5 uL. After a 30-minute incubation at room temperature, 2.5 uL of Eu-anti GST antibody (diluted to 1 nM in assay buffer) plus Kinase Tracer 178 (diluted in assay buffer to 5 nM for DDR1 and 10 nM for DDR2) were added to the plate. Following 60-minute incubation at room temperature, time-resolved fluorescence was measured on a BMG Labtech PHERAstar plate reader. DMSO (1%) and reference compound (1 μM) were used to generate the Max and Min assay signals, respectively. Data was analysed using a four-parameter logistic model to calculate IC50 values, with at least two independent replicates were performed for each compound.

Recombinant human DDR1 = Recombinant human DDR1 (Homo sapiens (Human), UniProt Q08345); assay: LanthaScreen Eu Kinase Binding Assay, DDR1; conditions: DDR1 2.5 nM (aa440-876, GST tag), Kinase Tracer 178 5 nM; for IC50: read-out: DDR1 pIC50 (converted)
Recombinant human DDR1, sequence (Q08345 other isoform, or with tags, fused parts or gaps): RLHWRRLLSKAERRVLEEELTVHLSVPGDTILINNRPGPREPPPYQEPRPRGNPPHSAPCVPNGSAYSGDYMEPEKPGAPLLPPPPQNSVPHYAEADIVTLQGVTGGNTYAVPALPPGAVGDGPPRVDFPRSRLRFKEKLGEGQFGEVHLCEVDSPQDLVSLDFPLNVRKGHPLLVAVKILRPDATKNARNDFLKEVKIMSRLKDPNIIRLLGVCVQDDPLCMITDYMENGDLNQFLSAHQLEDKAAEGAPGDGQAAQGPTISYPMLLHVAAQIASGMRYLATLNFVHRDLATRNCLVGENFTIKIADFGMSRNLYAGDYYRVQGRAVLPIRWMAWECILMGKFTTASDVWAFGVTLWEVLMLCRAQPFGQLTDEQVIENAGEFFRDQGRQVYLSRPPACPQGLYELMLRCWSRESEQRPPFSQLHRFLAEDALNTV
Experimental: as §1, §2

Recombinant human DDR2, sequence (Q16832 427-855): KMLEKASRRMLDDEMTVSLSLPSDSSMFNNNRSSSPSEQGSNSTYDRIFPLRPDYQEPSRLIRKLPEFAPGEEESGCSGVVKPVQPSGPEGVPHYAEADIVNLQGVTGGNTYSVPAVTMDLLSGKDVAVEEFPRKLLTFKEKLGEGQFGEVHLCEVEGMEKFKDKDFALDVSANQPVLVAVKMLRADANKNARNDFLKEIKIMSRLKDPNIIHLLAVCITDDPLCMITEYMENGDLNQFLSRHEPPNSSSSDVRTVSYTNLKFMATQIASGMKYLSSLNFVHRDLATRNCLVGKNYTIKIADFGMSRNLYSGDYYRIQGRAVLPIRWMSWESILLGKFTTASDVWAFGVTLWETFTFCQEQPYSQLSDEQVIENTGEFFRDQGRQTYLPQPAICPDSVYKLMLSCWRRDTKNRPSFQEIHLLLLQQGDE

IC50 (Recombinant human DDR2) [µM] | IC50 (Recombinant human DDR1) [µM] | DDR2 pIC50 (Recombinant human DDR2) | DDR1 pIC50 (Recombinant human DDR1) | SMILES
0.01 to 0.1 | < 0.01 | – | – | Cn1ncc2cc(Nc3cccc4c3C(=O)N(CC(=O)NCC(F)(F)F)C4)ccc21 [Example 1, 2-[7-[(1-Methylindazol-5-yl)amino]-1-oxo-isoindolin-2-yl]-N-(2,2,2-trifluoroethyl) acetamide]
– | – | A (pIC50>8) | A (pIC50>8) | C[C@H](NC(=O)CN1Cc2cccc(Nc3ccc4c(cnn4C)c3)c2C1=O)C(F)(F)F [Example 2, 2-[7-[(1-Methylindazol-5-yl)amino]-1-oxo-isoindolin-2-yl]-N-[(1S)-2,2,2-trifluoro-1-methyl-ethyl]acetamide]
< 0.01 | < 0.01 | – | – | Cn1ncc2cc(Nc3cccc4c3C(=O)N(CC(=O)N3CCC[C@H]3C(F)(F)F)C4)ccc21 [Example 3, 7-[(1-Methylindazol-5-yl)amino]-2-[2-oxo-2-[(2S)-2-(trifluoromethyl)pyrrolidin-1-yl]ethyl]isoindolin-1-one]
– | – | A (pIC50>8) | A (pIC50>8) | Cn1ncc2cc(Nc3cccc4c3C(=O)N(CC(=O)Nc3cnoc3)C4)ccc21 [Example 4, N-isoxazol-4-yl-2-[7-[(1-methylindazol-5-yl)amino]-1-oxo-isoindolin-2-yl]acetamide]
0.01 to 0.1 | – | – | A (pIC50>8) | Cn1ncc2cc(Nc3cccc4c3C(=O)N(CC(=O)Nc3cccc(C(F)(F)F)c3)C4)ccc21 [Example 5, 2-{7-[(1-methyl-1H-indazol-5-yl)amino]-1-oxo-2,3-dihydro-1H-isoindol-2-yl}-N-[3-(trifluoromethyl)phenyl]acetamide]
– | 0.1 to 1 | D (pIC50≤6) | – | Cn1ncc2cc(Nc3cccc4c3C(=O)N(CC(=O)NCC(F)(F)F)C4(C)C)ccc21 [Example 7, 2-[1,1-dimethyl-4-[(1-methylindazol-5-yl)amino]-3-oxo-isoindolin-2-yl]-N-(2,2,2-trifluoroethyl)acetamide]
0.01 to 0.1 | 0.01 to 0.1 | – | – | CN(c1ccc2c(cnn2C)c1)c1cccc2c1C(=O)N(CC(=O)NCC(F)(F)F)C2 [Example 8, 2-[7-[methyl-(1-methylindazol-5-yl)amino]-1-oxo-isoindolin-2-yl]-N-(2,2,2-trifluoroethyl)acetamide]
0.1 to 1 | 0.01 to 0.1 | – | – | Cn1ncc2cc(Nc3cccc4c3C(=O)N(CC(=O)NCC(F)(F)F)C4)cnc21 [Example 9, 2-[7-[(1-methylpyrazolo[3,4-b]pyridin-5-yl)amino]-1-oxo-isoindolin-2-yl]-N-(2,2,2-trifluoroethyl)acetamide]
0.01 to 0.1 | – | – | A (pIC50>8) | Cn1ncc2cc(Nc3cccc4c3C(=O)N(CC(=O)Nc3cccc(C(C)(C)O)c3)C4)ccc21 [Example 10, N-[3-(1-hydroxy-1-methyl-ethyl)phenyl]-2-[7-[(1-methylindazol-5-yl)amino]-1-oxo-isoindolin-2-yl]acetamide]
– | – | A (pIC50>8) | A (pIC50>8) | Cc1cc(Nc2cccc3c2C(=O)N(CC(=O)NCC(F)(F)F)C3)cc2cn[nH]c12 [Example 11, 2-[7-[(7-methyl-1H-indazol-5-yl)amino]-1-oxo-isoindolin-2-yl]-N-(2,2,2-trifluoroethyl)acetamide]
0.01 to 0.1 | – | – | – | Cn1ncc2cc(Nc3cccc4c3C(=O)N(CC(=O)N3CCCC(C(F)(F)F)C3)C4)ccc21 (stereo not shown) [Example 12]
0.01 to 0.1 | – | – | A (pIC50>8) | CN(C)Cc1ccc(NC(=O)CN2Cc3cccc(Nc4ccc5c(cnn5C)c4)c3C2=O)cc1C(F)(F)F [Example 13, N-[4-[(dimethylamino)methyl]-3-(trifluoromethyl)phenyl]-2-[7-[(1-methylindazol-5-yl)amino]-1-oxo-isoindolin-2-yl]acetamide]
< 0.01 | < 0.01 | – | – | Cn1ncc2cc(Nc3cccc4c3C(=O)N(CC(=O)N3CCCC[C@H]3C(F)(F)F)C4)ccc21 [Example 14, 7-[(1-methylindazol-5-yl)amino]-2-[2-oxo-2-[(2S)-(trifluoromethyl)-1-piperidyl]ethyl]isoindolin-1-one]
0.01 to 0.1 | 0.01 to 0.1 | – | – | CC1c2cccc(Nc3ccc4c(cnn4C)c3)c2C(=O)N1CC(=O)NCC(F)(F)F (stereo not shown) [Example 15, 2-[1-methyl-4-[(1-methylindazol-5-yl)amino]-3-oxo-isoindolin-2-yl]-N-(2,2,2-trifluoroethyl)acetamide]
< 0.01 | < 0.01 | – | – | Cn1ncc2cc(Nc3cccc4c3C(=O)N(CC(=O)N3CCC[C@H]3C(F)F)C4)ccc21 [Example 16, 2-[2-[(2S)-(difluoromethyl)pyrrolidin-1-yl]-2-oxo-ethyl]-7-[(1-methylindazol-5-yl)amino]isoindolin-1-one]
0.1 to 1 | 0.01 to 0.1 | – | – | Cn1ncc2cc(Nc3cccc4c3C(=O)N(CC(=O)N3CC(C(F)(F)F)C3)C4)ccc21 [Example 18, 7-[(1-methylindazol-5-yl)amino]-2-[2-oxo-2-[3-(trifluoromethyl)73zetidine-1-yl]ethyl]isoindolin-1-one]
0.1 to 1 | 0.1 to 1 | – | – | Cn1ncc2cc(Nc3cccc4c3C(=O)N(CC(=O)N3CC(F)(F)C3)C4)ccc21 [Example 19, 2-[2-(3,3-difluoroazetidin-1-yl)-2-oxo-ethyl]-7-[(1-methylindazol-5-yl)amino]isoindolin-1-one]
0.01 to 0.1 | – | – | A (pIC50>8) | CN(C)Cc1cc(NC(=O)CN2Cc3cccc(Nc4ccc5c(cnn5C)c4)c3C2=O)cc(C(F)(F)F)c1 [Example 20, N-[3-[(dimethylamino)methyl]-5-(trifluoromethyl)phenyl]-2-[7-[(1-methylindazol-5-yl)amino]-1-oxo-isoindolin-2-yl]acetamide]
0.01 to 0.1 | – | – | A (pIC50>8) | O=C(CN1Cc2cccc(Nc3ccc4[nH]ncc4c3)c2C1=O)NCC(F)(F)F [Example 21, 2-[7-(1H-indazol-5-ylamino)-1-oxo-isoindolin-2-yl]-N-(2,2,2-trifluoroethyl)acetamide]
– | 0.01 to 0.1 | D (pIC50≤6) | – | O=C(CN1Cc2cccc(Nc3cnc4[nH]ncc4c3)c2C1=O)NCC(F)(F)F [Example 22, 2-[1-oxo-7-(1H-pyrazolo[3,4-b]pyridin-5-ylamino)isoindolin-2-yl]-N-(2,2,2-trifluoroethyl)acetamide]
0.01 to 0.1 | 0.01 to 0.1 | – | – | Cn1ncc2cc(Nc3cccc4c3C(=O)N(CC(=O)Nc3cccc(C(C)(C)N)c3)C4)ccc21 [Example 23, N-[3-(1-amino-1-methyl-ethyl)phenyl]-2-[7-[(1-methylindazol-5-yl)amino]-1-oxo-isoindolin-2-yl]acetamide]
0.01 to 0.1 | – | – | A (pIC50>8) | Cn1ncc2cc(Nc3cccc4c3C(=O)N(CC(=O)NC3CC3(F)F)C4)ccc21 (stereo not shown) [Example 24, N-(2,2-difluorocyclopropyl)-2-[7-[(1-methylindazol-5-yl)amino]-1-oxo-isoindolin-2-yl]acetamide]
0.01 to 0.1 | 0.01 to 0.1 | – | – | Cn1ncc2cc(Nc3cccc4c3C(=O)N(CC(=O)N3CCOC(C(F)(F)F)C3)C4)ccc21 (stereo not shown) [Example 26, 7-[(1-methylindazol-5-yl)amino]-2-[2-oxo-2-[2-(trifluoromethyl)morpholin-4-yl]ethyl]isoindolin-1-one]
– | 0.01 to 0.1 | – | – | Cc1n[nH]c2cc(Nc3cccc4c3C(=O)N(CC(=O)NCC(F)(F)F)C4)cc(Cl)c12 [Example 91, 2-[7-[(4-chloro-3-methyl-1H-indazol-6-yl)amino]-1-oxo-isoindolin-2-yl]-N-(2,2,2-trifluoroethyl)acetamide]
